In patent US11123354B2, “Method for the treatment of osteoarthritis” (ABIOGEN PHARMA S.P.A., priority 2016, dated 2021):

Test: Pharmacokinetics and knee joint localization of 14C-Chlodronate after single intra-articular injection
Assay type: in vivo, rat
Conditions: for residual concentration in femoral articular cartilage / residual concentration in femoral articular cartilage as % of the value measured at t=30 minutes: first order exponential approximation; for radioactivity in Femoral Articular Cartilage / radioactivity in Tibial Articular Cartilage: osteoarthritic rats, single i.a. 0.1 mg (2 mg/ml)
Experimental: In this study the pharmacokinetics of ^14C-Chlodronate was evaluated, and the localization of the labeled compound in the knee joint following a single intra-articular injection of 0.1 mg of ^14C-Chlodronate, administered as aqueous solution in a concentration of 2 mg/ml, in sham and osteoarthritic rat models was verified.
The pharmacokinetic parameters of ^14C-Chlodronate were determined by measuring the radioactivity of blood samples collected at different timepoints from the time of injection.
The localization of the labeled compound in the knee joint was determined by leg x-rays. The fitting of radioactivity concentrations, expressed in μCi/g, was performed by using standard curves.

[1] = about two weeks after the injection
[2] = osteoarthritis rat model, 30 minutes from the injection

## O=P(O)(O)[14C](Cl)(Cl)P(=O)(O)O [^14C-Chlodronate]
168 hours (7 days) after the injection
  radioactivity mean value in the cartilage: about 25 μCi/g
168 hours after the injection
  radioactivity in cartilage as % of the value found half an hour after the injection: more than 62%
About 1 month after injection
  residual concentration in femoral articular cartilage: about 8.78 μCi/g
  residual concentration in femoral articular cartilage as % of the value measured at t=30 minutes: about 24.27%
[1]
  residual concentration in femoral articular cartilage: about 18.92 μCi/g
  residual concentration in femoral articular cartilage as % of the value measured at t=30 minutes: about 44.36%
About two weeks after the injection, first order exponential approximation of Table 7 data
  concentration in both femoral and tibial cartilage relative to the value measured at t=30 minutes: > 40%
After a few hours from the injection
  concentration of 14C-Chlodronate in the blood: very modest, practically negligible
T = 30 minutes
  radioactivity in Femoral Articular Cartilage: 42.649 μCi/g
  radioactivity in Tibial Articular Cartilage: 36.935 μCi/g
T = 6 hours
  radioactivity in Femoral Articular Cartilage: 36.163 μCi/g
  radioactivity in Tibial Articular Cartilage: 27.299 μCi/g
T = 24 hours
  radioactivity in Femoral Articular Cartilage: 34.712 μCi/g
  radioactivity in Tibial Articular Cartilage: 27.840 μCi/g
T = 72 hours
  radioactivity in Femoral Articular Cartilage: 25.561 μCi/g
  radioactivity in Tibial Articular Cartilage: 22.331 μCi/g
T = 168 hours
  radioactivity in Femoral Articular Cartilage: 28.020 μCi/g
  radioactivity in Tibial Articular Cartilage: 21.165 μCi/g
[2]
  radioactivity concentration in the articular cartilage: about 40 μCi/g
  radioactivity concentration in the synovial cavity and in the femoral and tibial bone: lower than 1 μCi/g
